Experimental findings from paper PMC7206119, “RIP1 inhibition blocks inflammatory diseases but not tumor growth or metastases” (Cell Death and Differentiation, 2019) are described below.

The structures appear in SMILES notation.

As usually defined, the inhibition is the drop in the measured response relative to a control, in per cent.

Holding throughout (test): biochemical
Holding throughout (set-up): Thermo Fisher SelectScreen kinase panel: Z'-LYTE and Adapta activity, LanthaScreen binding
In general terms: In TR-FRET formats the signal depends on donor and acceptor labels being close together.

The target in one assay is T1, DNA-PK (Homo sapiens, UniProt P78527).
T1 construct: gene PRKDC
In a few lines: (§1)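 Single-concentration panel: 10 µM GNE684 in KINOMEscan scanMAX binding (468 kinases) and in a 221-kinase panel run as Z'-LYTE/Adapta activity or LanthaScreen binding assays.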

In the next assay the target is T2, ZAK (Homo sapiens, UniProt Q9NYL2).
T2 construct: gene MAP3K20
The procedure, abridged: as §1

The target of another assay is T3, ASK1 (Homo sapiens, UniProt Q99683).
T3 construct: gene MAP3K5
The procedure, abridged: as §1

Another assay addresses T4, MST2 (Homo sapiens, UniProt Q13188).
T4 construct: gene STK3
In a few lines:
as §1

The next assay deals with FGFR3 (Homo sapiens, UniProt P22607). In a few lines:
as §1

A further assay addresses MET (Homo sapiens, UniProt P08581). In a few lines:
as §1

The target in a further assay is ROCK1 (Homo sapiens, UniProt Q13464). In a few lines:
as §1

The next assay concerns the target SPHK1 (Homo sapiens, UniProt Q9NYA1). The procedure, abridged: as §1
In a further assay the target is CDK2/cyclinA (Homo sapiens, UniProt P24941). The procedure, abridged: as §1
For a further assay, the target named is T5, FAK (Homo sapiens, UniProt Q05397).
T5 construct: gene PTK2
In a few lines: as §1

A further assay concerns the target CDK8/cyclinC (Homo sapiens, UniProt P49336). In a few lines: as §1
A further assay deals with ITK (Homo sapiens, UniProt Q08881). The procedure, abridged: as §1
The target of the next assay is T6, Rse (Homo sapiens, UniProt Q06418).
T6 construct: gene TYRO3
In a few lines:
as §1

The target of another assay is PAK4 (Homo sapiens, UniProt O96013). The procedure, abridged: as §1
The next assay addresses AKT1 (Homo sapiens, UniProt P31749). In a few lines: as §1
For a further assay, the target named is EPHA1 (Homo sapiens, UniProt P21709). The procedure, abridged:
as §1

A further assay concerns the target T7, CK1_alpha1 (Homo sapiens, UniProt P48729).
T7 construct: gene CSNK1A1
The procedure, abridged: as §1

Another assay concerns the target T8, p38-gamma (Homo sapiens, UniProt P53778).
T8 construct: gene MAPK12
The procedure, abridged:
as §1

A further assay has as its target SIK2 (Homo sapiens, UniProt Q9H0K1). The procedure, abridged: as §1
For a further assay, the target named is EGFR (Homo sapiens, UniProt P00533). The procedure, abridged: as §1
Another assay has as its target DDR1 (Homo sapiens, UniProt Q08345). In a few lines:
as §1

The target in a further assay is WNK2 (Homo sapiens, UniProt Q9Y3S1). The procedure, abridged: as §1
Another assay addresses BMX (Homo sapiens, UniProt P51813). The procedure, abridged: as §1

T2 sequence (Q9NYL2 whole entry): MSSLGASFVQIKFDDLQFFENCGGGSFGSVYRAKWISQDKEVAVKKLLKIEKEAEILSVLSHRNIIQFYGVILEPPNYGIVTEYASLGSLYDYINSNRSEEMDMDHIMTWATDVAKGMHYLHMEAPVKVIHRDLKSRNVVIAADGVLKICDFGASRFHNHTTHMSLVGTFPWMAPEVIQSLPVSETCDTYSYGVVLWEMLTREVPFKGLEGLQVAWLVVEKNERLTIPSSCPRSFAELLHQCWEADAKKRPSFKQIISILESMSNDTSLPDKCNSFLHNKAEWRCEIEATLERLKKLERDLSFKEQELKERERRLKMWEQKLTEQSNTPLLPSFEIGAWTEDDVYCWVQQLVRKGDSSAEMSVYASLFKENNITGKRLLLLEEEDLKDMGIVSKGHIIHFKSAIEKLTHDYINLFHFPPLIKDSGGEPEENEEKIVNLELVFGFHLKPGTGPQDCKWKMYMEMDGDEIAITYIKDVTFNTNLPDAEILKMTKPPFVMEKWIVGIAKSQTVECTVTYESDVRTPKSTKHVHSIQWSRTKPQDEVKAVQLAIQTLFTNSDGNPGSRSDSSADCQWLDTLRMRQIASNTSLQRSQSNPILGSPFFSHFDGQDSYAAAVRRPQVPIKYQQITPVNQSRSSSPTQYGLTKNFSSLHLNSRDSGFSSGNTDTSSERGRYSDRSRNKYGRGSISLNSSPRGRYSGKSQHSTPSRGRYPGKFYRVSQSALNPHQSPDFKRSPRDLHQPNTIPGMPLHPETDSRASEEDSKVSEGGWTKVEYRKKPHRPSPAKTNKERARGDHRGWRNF
T8 sequence (P53778 whole entry): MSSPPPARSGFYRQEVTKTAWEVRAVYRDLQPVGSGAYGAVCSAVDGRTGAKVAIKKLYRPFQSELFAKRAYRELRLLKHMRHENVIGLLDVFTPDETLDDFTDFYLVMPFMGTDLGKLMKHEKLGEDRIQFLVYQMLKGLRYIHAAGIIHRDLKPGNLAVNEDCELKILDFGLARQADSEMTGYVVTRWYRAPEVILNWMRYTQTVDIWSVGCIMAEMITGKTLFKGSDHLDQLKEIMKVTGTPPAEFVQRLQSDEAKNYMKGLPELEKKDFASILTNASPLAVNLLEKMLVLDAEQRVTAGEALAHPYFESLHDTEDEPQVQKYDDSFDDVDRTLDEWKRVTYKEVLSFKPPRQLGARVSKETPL
T5 sequence (Q05397 whole entry): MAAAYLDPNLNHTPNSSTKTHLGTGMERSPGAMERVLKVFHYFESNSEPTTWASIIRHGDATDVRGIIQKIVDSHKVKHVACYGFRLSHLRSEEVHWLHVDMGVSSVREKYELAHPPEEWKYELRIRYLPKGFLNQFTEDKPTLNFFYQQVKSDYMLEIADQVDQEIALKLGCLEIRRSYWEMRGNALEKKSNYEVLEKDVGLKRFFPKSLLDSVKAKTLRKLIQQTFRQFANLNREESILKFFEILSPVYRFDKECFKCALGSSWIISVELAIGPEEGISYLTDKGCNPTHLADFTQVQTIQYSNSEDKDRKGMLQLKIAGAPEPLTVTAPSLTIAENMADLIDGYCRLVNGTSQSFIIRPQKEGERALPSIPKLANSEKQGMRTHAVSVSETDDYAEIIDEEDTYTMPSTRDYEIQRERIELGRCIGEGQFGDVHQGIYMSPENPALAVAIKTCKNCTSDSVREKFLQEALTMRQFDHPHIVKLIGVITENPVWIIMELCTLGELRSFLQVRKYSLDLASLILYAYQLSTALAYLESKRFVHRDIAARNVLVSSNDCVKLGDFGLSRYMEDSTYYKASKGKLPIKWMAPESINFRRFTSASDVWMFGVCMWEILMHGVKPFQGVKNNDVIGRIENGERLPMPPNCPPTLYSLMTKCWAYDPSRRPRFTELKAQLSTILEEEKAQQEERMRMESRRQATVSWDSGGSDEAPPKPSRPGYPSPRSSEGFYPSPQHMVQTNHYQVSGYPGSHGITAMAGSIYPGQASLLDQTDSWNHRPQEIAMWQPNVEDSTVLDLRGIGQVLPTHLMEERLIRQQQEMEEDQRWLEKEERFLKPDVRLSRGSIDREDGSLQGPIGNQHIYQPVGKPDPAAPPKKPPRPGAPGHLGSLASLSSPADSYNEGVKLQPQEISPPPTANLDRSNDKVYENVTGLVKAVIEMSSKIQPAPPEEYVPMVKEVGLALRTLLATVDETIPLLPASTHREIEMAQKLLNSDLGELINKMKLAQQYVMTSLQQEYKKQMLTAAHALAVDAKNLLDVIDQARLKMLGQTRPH
DDR1, sequence (Q08345 whole entry): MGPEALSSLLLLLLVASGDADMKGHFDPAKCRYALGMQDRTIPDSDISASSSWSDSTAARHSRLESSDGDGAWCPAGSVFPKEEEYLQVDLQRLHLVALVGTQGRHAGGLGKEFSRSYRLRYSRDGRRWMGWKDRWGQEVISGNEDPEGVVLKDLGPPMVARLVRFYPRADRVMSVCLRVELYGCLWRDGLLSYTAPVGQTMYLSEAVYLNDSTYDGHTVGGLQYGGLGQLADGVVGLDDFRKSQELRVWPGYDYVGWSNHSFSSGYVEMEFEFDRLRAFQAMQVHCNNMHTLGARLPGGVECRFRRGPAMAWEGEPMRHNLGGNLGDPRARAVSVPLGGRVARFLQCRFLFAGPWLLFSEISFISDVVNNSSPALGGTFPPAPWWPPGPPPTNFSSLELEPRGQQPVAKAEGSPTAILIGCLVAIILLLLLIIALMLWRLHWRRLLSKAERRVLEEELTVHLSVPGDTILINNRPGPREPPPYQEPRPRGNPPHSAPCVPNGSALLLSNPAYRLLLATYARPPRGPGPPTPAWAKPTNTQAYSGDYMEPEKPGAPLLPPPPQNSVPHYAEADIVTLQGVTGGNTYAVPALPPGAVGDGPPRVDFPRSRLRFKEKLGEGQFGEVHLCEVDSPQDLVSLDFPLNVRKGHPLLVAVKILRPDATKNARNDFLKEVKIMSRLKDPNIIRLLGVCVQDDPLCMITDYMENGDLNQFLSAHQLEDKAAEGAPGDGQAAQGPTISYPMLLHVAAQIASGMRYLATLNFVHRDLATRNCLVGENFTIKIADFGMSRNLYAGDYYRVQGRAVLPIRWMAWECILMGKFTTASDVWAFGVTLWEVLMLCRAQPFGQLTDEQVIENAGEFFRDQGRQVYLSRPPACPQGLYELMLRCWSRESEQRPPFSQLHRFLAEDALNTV
AKT1, sequence (P31749 whole entry): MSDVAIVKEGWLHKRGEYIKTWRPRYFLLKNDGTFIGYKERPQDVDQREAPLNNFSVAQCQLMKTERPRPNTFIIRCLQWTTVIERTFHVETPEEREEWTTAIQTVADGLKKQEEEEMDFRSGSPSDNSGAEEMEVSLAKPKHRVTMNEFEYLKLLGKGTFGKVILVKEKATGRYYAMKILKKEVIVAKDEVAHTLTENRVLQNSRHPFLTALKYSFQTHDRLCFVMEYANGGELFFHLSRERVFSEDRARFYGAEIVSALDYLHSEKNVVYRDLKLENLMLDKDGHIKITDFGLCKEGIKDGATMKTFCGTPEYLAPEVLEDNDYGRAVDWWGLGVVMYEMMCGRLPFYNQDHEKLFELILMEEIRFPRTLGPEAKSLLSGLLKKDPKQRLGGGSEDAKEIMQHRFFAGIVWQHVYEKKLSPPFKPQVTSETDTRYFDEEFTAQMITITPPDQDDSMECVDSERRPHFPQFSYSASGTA
EPHA1, sequence (P21709 whole entry): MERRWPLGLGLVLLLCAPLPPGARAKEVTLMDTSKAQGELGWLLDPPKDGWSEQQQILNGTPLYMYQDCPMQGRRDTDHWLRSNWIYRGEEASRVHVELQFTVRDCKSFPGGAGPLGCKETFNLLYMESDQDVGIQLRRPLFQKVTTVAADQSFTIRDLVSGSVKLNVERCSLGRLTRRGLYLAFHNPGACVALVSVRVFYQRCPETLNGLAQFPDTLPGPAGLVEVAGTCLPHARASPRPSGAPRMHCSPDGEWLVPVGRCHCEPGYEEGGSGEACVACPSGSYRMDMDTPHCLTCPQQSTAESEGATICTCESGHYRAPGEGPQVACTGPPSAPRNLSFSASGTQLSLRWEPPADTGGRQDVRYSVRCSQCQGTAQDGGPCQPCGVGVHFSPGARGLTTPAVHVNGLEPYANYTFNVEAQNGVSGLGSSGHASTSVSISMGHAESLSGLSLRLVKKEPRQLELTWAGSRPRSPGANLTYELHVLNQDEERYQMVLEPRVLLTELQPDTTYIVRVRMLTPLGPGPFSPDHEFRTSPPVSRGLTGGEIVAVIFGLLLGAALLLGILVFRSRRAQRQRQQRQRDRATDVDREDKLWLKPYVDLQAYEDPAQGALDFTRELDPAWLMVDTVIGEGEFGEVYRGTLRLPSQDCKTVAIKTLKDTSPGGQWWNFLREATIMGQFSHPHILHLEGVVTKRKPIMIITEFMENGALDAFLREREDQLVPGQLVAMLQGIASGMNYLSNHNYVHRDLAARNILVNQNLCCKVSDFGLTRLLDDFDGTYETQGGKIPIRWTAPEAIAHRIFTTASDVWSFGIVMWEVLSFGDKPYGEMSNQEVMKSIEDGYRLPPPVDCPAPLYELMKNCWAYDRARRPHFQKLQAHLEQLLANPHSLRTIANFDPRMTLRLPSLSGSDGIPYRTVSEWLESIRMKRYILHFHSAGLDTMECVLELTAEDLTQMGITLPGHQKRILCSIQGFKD
SPHK1, sequence (Q9NYA1 whole entry): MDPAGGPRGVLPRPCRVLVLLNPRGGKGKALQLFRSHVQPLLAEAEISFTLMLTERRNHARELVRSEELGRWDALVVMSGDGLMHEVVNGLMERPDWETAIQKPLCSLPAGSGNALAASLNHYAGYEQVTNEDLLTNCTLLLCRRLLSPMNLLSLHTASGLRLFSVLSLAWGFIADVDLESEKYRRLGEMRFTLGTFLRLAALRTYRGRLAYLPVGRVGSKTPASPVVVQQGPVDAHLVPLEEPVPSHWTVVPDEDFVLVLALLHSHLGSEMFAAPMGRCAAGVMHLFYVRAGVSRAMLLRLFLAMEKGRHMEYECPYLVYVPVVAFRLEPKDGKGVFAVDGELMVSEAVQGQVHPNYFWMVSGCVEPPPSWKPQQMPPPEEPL

For `COc1cc2c(cn1)N(C)C(=O)[C@@H](NC(=O)c1nc3n(n1)[C@H](c1ccccc1)CC3)CC2` [GNE684, (S)-N-((S)-7-methoxy-1-methyl-2-oxo-2,3,4,5-tetrahydro-1H-pyrido[3,4-b]azepin-3-yl)-5-phenyl-6,7-dihydro-5H-pyrrolo[1,2-b][1,2,4]triazole-2-carboxamide], the inhibition at 10 µM at DNA-PK is 4%; on ZAK, -0.5%; at ASK1, 4%; on MST2, 5%; at FGFR3 it was -1.5%; at MET, -2%. The inhibition at 10 µM on ROCK1 turned out to be 1%; on SPHK1 it was 4.5%; on CDK2/cyclinA it was 6.5%; on FAK it was 7.5%; on CDK8/cyclinC, 4.5%; on ITK, 5%. Moreover, the inhibition at 10 µM amounted to 5% at Rse; 14% at PAK4; 2.5% at AKT1; 9.5% on EPHA1; 3% on CK1_alpha1; 7% at p38-gamma. The inhibition at 10 µM was 8.5% at SIK2; 2.5% at EGFR; 4.5% on DDR1; -8.5% at WNK2; 4.5% at BMX.
